The assay concerns HCV 1b-377-neo replicon cells. Kind of assay: HCV replicon assay, HCV 1b-377-neo replicon cells (1b FRET). Type of assay: cell-based, Hepatitis C virus genotype 1b. The note with it: Hepatitis C virus, HCV 1b-377-neo replicon cells; HCV 1b genotype; read-out: EC50 range against HCV 1b (Table 2, Range). The gist of the method:
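FRET-based replicon assay in HCV 1b-377-neo cells, including a comparison line carrying the NS5A Y2065H mutation that confers resistance to a reference compound.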
In general terms: In antiviral work, replicon cells carry a viral genome segment that copies itself.

As a reminder, the EC50 is the concentration needed to bring the measured effect to its halfway point. As for `COC(=O)N[C@@H]1CC[C@H](C(=O)N2CCC[C@H]2c2ncc(-c3ccc(-c4ccc(-c5cnc([C@@H]6CCCN6C(=O)[C@H](NC(=O)OC)c6ccccc6)[nH]5)cc4)cc3)[nH]2)C1` [cj-64, methyl ((1R)-2-((2S)-2-(5-(4′-(2-((2S)-1-(((1S,3R)-3-((methoxycarbonyl)amino)cyclopentyl)carbonyl)-2-pyrrolidinyl)-1H-imidazol-5-yl)-4-biphenylyl)-1H-imidazol-2-yl)-1-pyrrolidinyl)-2-oxo-1-phenylethyl)carbamate], the EC50 is 0.001 to 0.999 nM.
The figure for `COC(=O)N[C@@H](Cc1ccccn1)C(=O)N1CCC[C@H]1c1ncc(-c2ccc(-c3ccc(-c4cnc([C@@H]5CCCN5C(=O)[C@@H](NC(=O)OC)C(C)C)[nH]4)cc3)cc2)[nH]1` [cj-65, methyl ((1S)-1-(((2S)-2-(5-(4′-(2-((2S)-1-((2S)-2-((methoxycarbonyl)amino)-3-(2-pyridinyl)propanoyl)-2-pyrrolidinyl)-1H-imidazol-5-yl)-4-biphenylyl)-1H-imidazol-2-yl)-1-pyrrolidinyl)carbonyl)-2-methylpropyl)carbamate] is 0.001 to 0.999 nM.
Turning to `COC(=O)N[C@@H](C)C(=O)N1CCC[C@H]1c1ncc(-c2ccc(-c3ccc(-c4cnc([C@@H]5CCCN5C(=O)[C@H](Cc5ccccn5)NC(=O)OC)[nH]4)cc3)cc2)[nH]1` [cj-66, methyl ((1S)-2-((2S)-2-(5-(4′-(2-((2S)-1-(N-(methoxycarbonyl)-L-alanyl)-2-pyrrolidinyl)-1H-imidazol-5-yl)-4-biphenylyl)-1H-imidazol-2-yl)-1-pyrrolidinyl)-2-oxo-1-(2-pyridinylmethyl)ethyl)carbamate], the EC50 was 0.001 to 0.999 nM.
Regarding `COC(=O)N[C@@H](Cc1ccccn1)C(=O)N1CCC[C@H]1c1ncc(-c2ccc(-c3ccc(-c4cnc([C@@H]5CCCN5C(=O)[C@@H](NC(=O)OC)[C@@H](C)OC)[nH]4)cc3)cc2)[nH]1` [cj-67], the EC50 was in the range of 0.001 to 0.999 nM.
The figure for `CCN(CC)[C@@H](C(=O)N1CCC[C@H]1c1ncc(-c2ccc(-c3ccc(-c4cnc([C@@H]5CCCN5C(=O)[C@H](Cc5ccccn5)NC(=O)OC)[nH]4)cc3)cc2)[nH]1)c1ccccc1` [cj-68, methyl ((1S)-2-((2S)-2-(5-(4′-(2-((2S)-1-((2R)-2-(diethylamino)-2-phenylacetyl)-2-pyrrolidinyl)-1H-imidazol-5-yl)-4-biphenylyl)-1H-imidazol-2-yl)-1-pyrrolidinyl)-2-oxo-1-(2-pyridinylmethyl)ethyl)carbamate] is 0.001 to 0.999 nM; for `COC(=O)N[C@H](C(=O)N1CCC[C@H]1c1ncc(-c2ccc(-c3ccc(-c4cnc([C@@H]5CCCN5C(=O)[C@H]5CC[C@@H](NC(=O)OC)CC5)[nH]4)cc3)cc2)[nH]1)C(C)C` [cj-69, methyl ((1S)-1-(((2S)-2-(5-(4′-(2-((2S)-1-((cis-4-((methoxycarbonyl)amino)cyclohexyl)carbonyl)-2-pyrrolidinyl)-1H-imidazol-5-yl)-4-biphenylyl)-1H-imidazol-2-yl)-1-pyrrolidinyl)carbonyl)-2-methylpropyl)carbamate] it is 0.001 to 0.999 nM.
The figure for `COC(=O)N[C@H](C(=O)N1CCC[C@H]1c1ncc(-c2ccc(-c3ccc(-c4cnc([C@@H]5CCCN5C(=O)[C@H]5CC[C@H](NC(=O)OC)CC5)[nH]4)cc3)cc2)[nH]1)C(C)C` [cj-70, methyl ((1S)-1-(((2S)-2-(5-(4′-(2-((2S)-1-((trans-4-((methoxycarbonyl)amino)cyclohexyl)carbonyl)-2-pyrrolidinyl)-1H-imidazol-5-yl)-4-biphenylyl)-1H-imidazol-2-yl)-1-pyrrolidinyl)carbonyl)-2-methylpropyl)carbamate] is 0.001 to 0.999 nM.
The figure for `CCN(CC)[C@H]1CC[C@@H](C(=O)N2CCC[C@H]2c2ncc(-c3ccc(-c4ccc(-c5cnc([C@@H]6CCCN6C(=O)[C@@H](NC(=O)OC)C(C)C)[nH]5)cc4)cc3)[nH]2)CC1` [cj-71, methyl ((1S)-1-(((2S)-2-(5-(4′-(2-((2S)-1-((cis-4-(diethylamino)cyclohexyl)carbonyl)-2-pyrrolidinyl)-1H-imidazol-5-yl)-4-biphenylyl)-1H-imidazol-2-yl)-1-pyrrolidinyl)carbonyl)-2-methylpropyl)carbamate] is 0.001 to 0.999 nM; for `CCN(CC)[C@H]1CC[C@@H](C(=O)N2CCC[C@H]2c2ncc(-c3ccc(-c4ccc(-c5cnc([C@@H]6CCCN6C(=O)[C@@H](NC(=O)OC)[C@@H](C)OC)[nH]5)cc4)cc3)[nH]2)CC1` [cj-72, methyl ((1S,2R)-1-(((2S)-2-(5-(4′-(2-((2S)-1-((cis-4-(diethylamino)cyclohexyl)carbonyl)-2-pyrrolidinyl)-1H-imidazol-5-yl)-4-biphenylyl)-1H-imidazol-2-yl)-1-pyrrolidinyl)carbonyl)-2-methoxypropyl)carbamate] it is 0.001 to 0.999 nM; for `CCN(CC)[C@@H](C(=O)N1CCC[C@H]1c1ncc(-c2ccc(-c3ccc(-c4cnc([C@@H]5CCCN5C(=O)[C@H]5CC[C@@H](N(CC)CC)CC5)[nH]4)cc3)cc2)[nH]1)c1ccccc1` [cj-73, cis-4-(((2S)-2-(5-(4′-(2-((2S)-1-((2R)-2-(diethylamino)-2-phenylacetyl)-2-pyrrolidinyl)-1H-imidazol-5-yl)-4-biphenylyl)-1H-imidazol-2-yl)-1-pyrrolidinyl)carbonyl)-N,N-diethylcyclohexanamine] it is 0.001 to 0.999 nM.
As for `CCN(CC)[C@H]1CC[C@@H](C(=O)N2CCC[C@H]2c2ncc(-c3ccc(-c4ccc(-c5cnc([C@@H]6CCCN6C(=O)[C@H](C)NC(=O)OC)[nH]5)cc4)cc3)[nH]2)CC1` [cj-74, methyl ((1S)-2-((2S)-2-(5-(4′-(2-((2S)-1-((cis-4-(diethylamino)cyclohexyl)carbonyl)-2-pyrrolidinyl)-1H-imidazol-5-yl)-4-biphenylyl)-1H-imidazol-2-yl)-1-pyrrolidinyl)-1-methyl-2-oxoethyl)carbamate], the EC50 lay within 1 to 99 nM.
The figure for `COC(=O)N[C@@H](Cc1cn(Cc2ccccc2)cn1)C(=O)N1CCC[C@H]1c1ncc(-c2ccc(-c3ccc(-c4cnc([C@@H]5CCCN5C(=O)[C@@H](NC(=O)OC)[C@@H](C)OC)[nH]4)cc3)cc2)[nH]1` [cj-75, methyl ((1S)-1-((1-benzyl-1H-imidazol-4-yl)methyl)-2-((2S)-2-(5-(4′-(2-((2S)-1-((2S,3R)-3-methoxy-2-((methoxycarbonyl)amino)butanoyl)-2-pyrrolidinyl)-1H-imidazol-5-yl)-4-biphenylyl)-1H-irnidazol-2-yl)-1-pyrrolidinyl)-2-oxoethyl)carbamate] is 0.001 to 0.999 nM.
The figure for `COC(=O)N[C@@H](Cc1cn(Cc2ccccc2)cn1)C(=O)N1CCC[C@H]1c1ncc(-c2ccc(-c3ccc(-c4cnc([C@@H]5CCCN5C(=O)[C@@H](NC(=O)OC)C(C)C)[nH]4)cc3)cc2)[nH]1` [cj-76, methyl ((1S)-1-(((2S)-2-(5-(4′-(2-((2S)-1-((2S)-3-(1-benzyl-1H-imidazol-4-yl)-2-((methoxycarbonyl)amino)propanoyl)-2-pyrrolidinyl)-1H-imidazol-5-yl)-4-biphenylyl)-1H-imidazol-2-yl)-1-pyrrolidinyl)carbonyl)-2-methylpropyl)carbamate] is 0.001 to 0.999 nM; for `COC(=O)N[C@@H](C)C(=O)N1CCC[C@H]1c1ncc(-c2ccc(-c3ccc(-c4cnc([C@@H]5CCCN5C(=O)[C@H](Cc5cn(Cc6ccccc6)cn5)NC(=O)OC)[nH]4)cc3)cc2)[nH]1` [cj-77, methyl ((1S)-2-((2S)-2-(5-(4′-(2-((2S)-1-((2S)-3-(1-benzyl-1H-imidazol-4-yl)-2-((methoxycarbonyl)amino)propanoyl)-2-pyrrolidinyl)-1H-imidazol-5-yl)-4-biphenylyl)-1H-imidazol-2-yl)-1-pyrrolidinyl)-1-methyl-2-oxoethyl)carbamate] it is 0.001 to 0.999 nM; for `COC(=O)N[C@@H](Cc1cscn1)C(=O)N1CCC[C@H]1c1ncc(-c2ccc(-c3ccc(-c4cnc([C@@H]5CCCN5C(=O)[C@@H](NC(=O)OC)[C@@H](C)OC)[nH]4)cc3)cc2)[nH]1` [cj-78, methyl ((1S)-2-((2S)-2-(5-(4′-(2-((2S)-1-((2S,3R)-3-methoxy-2-((methoxycarbonyl)amino)butanoyl)-2-pyrrolidinyl)-1H-imidazol-5-yl)-4-biphenylyl)-1H-imidazol-2-yl)-1-pyrrolidinyl)-2-oxo-1-(1,3-thiazol-4-ylmethyl)ethyl)carbamate] it is 0.001 to 0.999 nM.
The figure for `COC(=O)N[C@@H](Cc1cscn1)C(=O)N1CCC[C@H]1c1ncc(-c2ccc(-c3ccc(-c4cnc([C@@H]5CCCN5C(=O)[C@@H](NC(=O)OC)C(C)C)[nH]4)cc3)cc2)[nH]1` [cj-79, methyl ((1S)-1-(((2S)-2-(5-(4′-(2-((2S)-1-((2S)-2-((methoxycarbonyl)amino)-3-(1,3-thiazol-4-yl)propanoyl)-2-pyrrolidinyl)-1H-imidazol-5-yl)-4-biphenylyl)-1H-imidazol-2-yl)-1-pyrrolidinyl)carbonyl)-2-methylpropyl)carbamate] is 0.001 to 0.999 nM; for `CCN(CC)[C@@H](C(=O)N1CCC[C@H]1c1ncc(-c2ccc(-c3ccc(-c4cnc([C@@H]5CCCN5C(=O)[C@H](Cc5cscn5)NC(=O)OC)[nH]4)cc3)cc2)[nH]1)c1ccccc1` [cj-80, methyl ((1S)-2-((2S)-2-(5-(4′-(2-((2S)-1-((2R)-2-(diethylamino)-2-phenylacetyl)-2-pyrrolidinyl)-1H-imidazol-5-yl)-4-biphenylyl)-1H-imidazol-2-yl)-1-pyrrolidinyl)-2-oxo-1-(1,3-thiazol-4-ylmethyl)ethyl)carbamate] it is 0.001 to 0.999 nM.
Regarding `COC(=O)N[C@@H](C)C(=O)N1CCC[C@H]1c1ncc(-c2ccc(-c3ccc(-c4cnc([C@@H]5CCCN5C(=O)[C@H](Cc5cscn5)NC(=O)OC)[nH]4)cc3)cc2)[nH]1` [cj-81, methyl ((1S)-2-((2S)-2-(5-(4′-(2-((2S)-1-(N-(methoxycarbonyl)-L-alanyl)-2-pyrrolidinyl)-1H-imidazol-5-yl)-4-biphenylyl)-1H-imidazol-2-yl)-1-pyrrolidinyl)-2-oxo-1-(1,3-thiazol-4-ylmethyl)ethyl)carbamate], the EC50 was in the range of 0.001 to 0.999 nM.
